Data on 13 compounds can be found in patent US10280179B2, “Spiroquinoxaline derivatives as inhibitors of non-apoptotic regulated cell-death” (Helmholtz Zentrum Munchen—Deutches Forschungszentrum Fur …, priority 2013, dated 2019).

For data set [1], the system named is human neuroblastoma cell line SH-SY5Y. The data set can be described thus: Inhibition of BSO-induced non-apoptotic cell death (Example B.1). It counts as cell-based. The conditions noted are these: SH-SY5Y cells, 72 hours. The text has this: Inhibition of BSO-Induced Non-Apoptotic Cell Death by Compounds Disclosed Herein
L-Buthionine sulfoximine (BSO) is a well-known glutathione (GSH) depletory, which inhibits gamma-glutamyl-cysteine-synthetase, the enzyme catalyzing the rate-limiting step in GSH biosynthesis. The human neuroblastoma cell line SH-SY5Y is sensitive to BSO-induced intracellular glutathione depletion, which causes high levels of reactive oxygen species (ROS) and cellular stress mimicking cellular conditions following ischemia (cf., e.g., Yamada et al., Neurochem. Int. 59:1003-9 (2011)).
Compounds disclosed herein were evaluated for their ability to promote cell survival upon administration of a lethal dose of BSO to cell-culture medium. Briefly, SH-SY5Y cells (ATCC® CRL-2266™) were propagated in DMEM supplemented with 10% FBS/1% Penicillin-Streptomycin, and then seeded onto 96-well plates at a concentration of 750 cells/well in 100 μL of media, to which BSO (Sigma Aldrich) was added (to a final concentration of 50 μM) together with increasing concentrations of the compound to be tested, and the plates incubated at 37° C./5% CO2 for 72 hours. Compound dilutions (0.5 pM to 100 μM) were prepared from 10 mM stocks dissolved in DMSO and diluted in media. Cells treated with BSO alone were used as negative control and alpha-Tocopherol (Sigma Aldrich) was used as positive control. Compound concentrations were tested in triplicate. After incubation, cell survival was detected using the live/dead cell assay AquaBluer™ (MultiTarget Pharmaceuticals) and quantified using a fluorescence plate reader (excitation filter: 530-560 nm/emission filter: 590 nm) (SpectraMax M4; Molecular Devices). Fluorescence data so obtained was normalised to the percentage of surviving cells and IC50 values calculated using the GraphPad Prism (GraphPad Software, Inc) software package.

Data set [2] relates to mouse hippocampal cell line (Ht22). The data set can be described thus: Inhibition of glutamate-induced non-apoptotic cell death (Example B.2). In kind it is cell-based. The conditions noted are these: HT-22, Ht22 cells. Summed up:
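Ht22 cells (2,000/well, DMEM/10% FBS) seeded together with 5 mM glutamate and compound (0.5 pM to 100 μM, triplicate), incubated 72 h at 37 °C/5% CO2. Cell survival then quantified; glutamate alone as negative control, alpha-tocopherol as positive control.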

The next data set deals with SH-SY5Y cells. The data set can be described thus: TNF-alpha-induced apoptosis, specificity for non-apoptotic cell death (Example B.3). It counts as cell-based, human. The conditions noted are these: compound 1 μM, TNF-alpha 10 ng/mL, FIG. 1. Here is the method:
SH-SY5Y cells were propagated and seeded in 96-well plates, together with compound N-1, N-2, N-10 of Table 1-N (FIG. 1(a)), compound O/S-6 or O/S-3 of Table 1-O/S (FIG. 1(b)), or compound C-12, C-91, or C-205 of Table 1-C (FIG. 1(c)) (each 1 μM) and TNF-alpha was added (final concentration: 10 ng/mL) to induce apoptosis. The apoptosis and pan-caspase inhibitor z-vad (final concentration: 50 μM) and the necroptosis inhibitor Necrostatin-1 (Nec-1; final concentration: 5 μM) were used for comparison. Control wells were established with vehicle only (DMSO), with and without treatment with TNF-alpha to induce apoptosis. Cells were incubated, and cell survival was detected and quantified. Percentage cell survival after TNF-alpha-induced apoptosis is shown (error bars indicate standard deviation (SD)).
Briefly, SH-SY5Y cells were propagated and seeded in 96-well plates, together with the compound to be tested (1 μM), generally as described in Example B.1, except they were seeded at 1,000 cell/well and instead of BSO, TNF-alpha (Invitrogen) was added to a final concentration of 10 ng/mL to induce apoptosis. The apoptosis and pan-caspase inhibitor Z-VAD-fmk (Enzo Life Science; final concentration 50 μM) and the necroptosis inhibitor Necrostatin-1 (Nec-1; Enzo Life Science; final concentration 5 μM) were used for comparison. Control wells were established with vehicle only (DMSO), with and without treatment with TNF-alpha to induce apoptosis. Cells were incubated, and cell survival was detected and quantified as described in Example B.1.

Another data set deals with Pfa1 cells. The data set can be described thus: Inhibition of non-apoptotic cell death after tamoxifen-induced GPx4 knockout in a recombinant cell line (Example B.4). The conditions noted are these: Mus musculus, read-out: Pfa1/TAM IC50. In kind it is cell-based. A digest of the protocol:
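Immortalised murine fibroblasts with tamoxifen-inducible CreERT2 for ablation of both GPx4 copies (Pfa1 cells) received tamoxifen on day 0 together with test compound. Cell survival was measured by AlamarBlue after 72 hours.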

Data set [3] in a line: Cellular toxicity, same assay as Example B.4 without TAM (Example B.5). It counts as cell-based. The conditions noted are these: mouse; Pfa1 cells without TAM; read-out: TC50 (the source's name). The text has this: Cellular Toxicity of Compounds of the Invention
An estimate of the toxicity for compounds of the invention was obtained by using the same assay as described in Example B.4, but without the addition of TAM. […] Such TC50 values obtained for certain compounds disclosed herein, together with an approximate therapeutic window (estimated by dividing each TC50 by the corresponding IC50 determined from example B.4) are shown in Table 3.

The mark [4] stands for this setting: 50 μM BSO, read-out: SH-SY5Y/BSO IC50.
Setting [5] is: BSO 50 μM, cell survival (AquaBluer), read-out: SH-SY5Y/BSO (Example B.1) IC50.
[6] abbreviates: glutamate 5 mM, 72 hours, cell survival, read-out: Ht22/GLU (Example B.2) IC50.
Setting [7] is: glutamate-induced cell death, read-out: Ht22/GLU.

Like-named read-outs stand apart in the source and are kept apart here.

For `CC1CCC2(CC1)Nc1ccccc1N=C2NCc1ccccc1Cl` (stereo not shown) [C-91], the IC50 in data set [1] (setting [4]) is less than 20 nM; in data set [1] (setting [5]) it was 9.33 nM; in data set [2] (setting [6]), approximately 50 nM; in data set [2] (setting [7]) it was less than 200 nM; in the data set with Pfa1 cells, less than 200 nM. Also, the “Percentage cell survival after TNF-alpha-induced apoptosis” value (“Percentage cell survival” for short) in the data set with SH-SY5Y cells is recorded as “Non-inhibition of apoptotic cell-death”. In data set [3], the CC50 is 10 to 20 µM.
For the compound `Clc1ccccc1CNC1=Nc2ccccc2NC12CCCCCC2` [C-205], the IC50 in data set [1] (setting [4]) was less than 100 nM; in data set [1] (setting [5]) it was 46.7 nM; in data set [2] (setting [6]), approximately 100 nM; in data set [2] (setting [7]), less than 500 nM; in the data set on Pfa1 cells it was less than 200 nM. Besides, in the data set with SH-SY5Y cells, the “Percentage cell survival” value was “Non-inhibition of apoptotic cell-death”. The CC50 in data set [3] lay within 20 to 50 µM.
Turning to `Clc1ccccc1CNC1=Nc2ccccc2NC12CCNCC2` [N-1], the IC50 was less than 20 nM in data set [1] (setting [4]); 6.51 nM in data set [1] (setting [5]); 10.3 nM in data set [2] (setting [6]); less than 200 nM in data set [2] (setting [7]); less than 50 nM in the data set with Pfa1 cells. In addition, the “Percentage cell survival” value in the data set on SH-SY5Y cells is reported as “Non-inhibition of apoptotic cell-death”. The CC50 in data set [3] is 10 to 20 µM.
Take `Clc1ccc(CNC2=Nc3ccccc3NC23CCOCC3)cc1` [O/S-3]: the IC50 is less than 500 nM in data set [1] (setting [4]); approximately 100 nM in data set [1] (setting [5]); approximately 100 nM in data set [2] (setting [6]); less than 100 nM in data set [2] (setting [7]); less than 500 nM with Pfa1 cells. Besides, in the data set on SH-SY5Y cells, the “Percentage cell survival” value is recorded as “Non-inhibition of apoptotic cell-death”. For the same compound, the CC50 in data set [3] was in the range of 20 to 50 µM.
`Clc1cc2c(cc1Cl)NC1(CCOCC1)C(NCc1ccccc1)=N2` [O/S-339]: the IC50 in data set [1] (setting [4]) is less than 20 nM; in data set [2] (setting [7]) it was less than 200 nM; with Pfa1 cells, less than 50 nM. Besides, in data set [3], the CC50 was in the range of 20 to 50 µM.
For `Cc1cc2c(cc1C)NC1(CCOCC1)C(NCc1ccccc1)=N2` [O/S-340], in that order: less than 200 nM, less than 500 nM, less than 500 nM and 20 to 50 µM.
For `Cc1cccc(CNC2=Nc3cc(Cl)c(Cl)cc3NC23CCOCC3)c1` [O/S-342], the IC50 in data set [1] (setting [4]) was less than 100 nM; in data set [2] (setting [7]) it was less than 500 nM; in the data set with Pfa1 cells, less than 50 nM. Moreover, the CC50 in data set [3] is 20 to 50 µM.
The matching figures for `Clc1ccc(CNC2=Nc3ccccc3NC23CCOCC3)cc1Cl` [O/S-345]: less than 100 nM, less than 500 nM, less than 100 nM and 20 to 50 µM.
On to `O=S1(=O)CCC2(CC1)Nc1ccccc1N=C2NCc1ccccc1` [O/S-363], for which the IC50 in data set [1] (setting [4]) is less than 2000 nM; in data set [2] (setting [7]), less than 5000 nM; with Pfa1 cells it was less than 2000 nM. Moreover, the CC50 in data set [3] was 10 to 20 µM.
As to `FC1(F)Oc2cc3c(cc2O1)NC1(CCOCC1)C(NCc1ccccc1)=N3` [O/S-366], the IC50 in data set [1] (setting [4]) is less than 50 nM; in data set [2] (setting [7]), less than 100 nM; in the data set with Pfa1 cells, less than 100 nM. In addition, the CC50 in data set [3] fell in the range of 20 to 50 µM.
On to `CC(NC1=Nc2ccccc2NC12CCSCC2)c1ccccc1` (stereo not shown) [O/S-367], for which the IC50 in data set [1] (setting [4]) is less than 200 nM; in data set [2] (setting [7]) it was less than 500 nM; in the data set on Pfa1 cells, less than 1000 nM. The CC50 in data set [3] is 20 to 50 µM.
As for `c1ccc(CCNC2=Nc3ccccc3NC23CCSCC3)cc1` [O/S-368], the IC50 in data set [1] (setting [4]) was less than 2000 nM; in data set [2] (setting [7]) it was less than 2000 nM; in the data set on Pfa1 cells, less than 5000 nM. Moreover, the CC50 in data set [3] fell in the range of 20 to 50 µM.
For `Cc1cc2c(cc1C)NC1(CCSCC1)C(NCc1ccccc1)=N2` [O/S-369], the results for the IC50 (in data set [1] (setting [4]); in data set [2] (setting [7]); in the data set with Pfa1 cells) were less than 50 nM, less than 200 nM and less than 100 nM, respectively. Further, the CC50 in data set [3] was in the range of 10 to 20 µM.
